Results reported in the NIST ThermoML archive (doi:10.1021/je060139a).
Numbers after ± are expanded uncertainties.

Tests used:
[1] = xn = mol fraction of the nth substance listed; settings: Wilhelmy plate method
[2] = refractive index (Na D-line) (dimensionless); xn = mol fraction of the nth substance listed; settings: 100.5 kPa, Liquid, Standard Abbe refractometry

CC(=O)OCc1ccccc1 [benzyl ethanoate] + CCO
Settings | refractive index, 288.15 K | refractive index, 298.18 K | refractive index, 308.15 K | refractive index, 318.15 K | surface tension liquid-gas, 288.15 K [mN/m] | surface tension liquid-gas, 298.18 K [mN/m] | surface tension liquid-gas, 308.15 K [mN/m] | surface tension liquid-gas, 318.15 K [mN/m]
[1], x1 = 0.05 | – | – | – | – | 24 ± 0.4 | 23.2 ± 0.4 | 22.3 ± 0.4 | 21.3 ± 0.4
[1], x1 = 0.1 | – | – | – | – | 24.8 ± 0.4 | 23.9 ± 0.4 | 23 ± 0.4 | 22 ± 0.4
[1], x1 = 0.15 | – | – | – | – | 25.5 ± 0.4 | 24.57 ± 0.4 | 23.63 ± 0.4 | 22.6 ± 0.4
[1], x1 = 0.2 | – | – | – | – | 26.1 ± 0.4 | 25.18 ± 0.4 | 24.23 ± 0.4 | 23.2 ± 0.4
[1], x1 = 0.25 | – | – | – | – | 26.7 ± 0.4 | 25.77 ± 0.4 | 24.83 ± 0.4 | 23.8 ± 0.4
[1], x1 = 0.3 | – | – | – | – | 27.3 ± 0.4 | 26.36 ± 0.4 | 25.43 ± 0.4 | 24.4 ± 0.4
[1], x1 = 0.35 | – | – | – | – | 28 ± 0.4 | 27.02 ± 0.4 | 26.07 ± 0.4 | 25.03 ± 0.4
[1], x1 = 0.4 | – | – | – | – | 28.7 ± 0.4 | 27.69 ± 0.4 | 26.72 ± 0.4 | 25.66 ± 0.4
[1], x1 = 0.45 | – | – | – | – | 29.4 ± 0.4 | 28.37 ± 0.4 | 27.38 ± 0.4 | 26.3 ± 0.4
[1], x1 = 0.5 | – | – | – | – | 30.1 ± 0.4 | 29.02 ± 0.4 | 28.03 ± 0.4 | 26.93 ± 0.4
[1], x1 = 0.55 | – | – | – | – | 30.8 ± 0.4 | 29.69 ± 0.4 | 28.67 ± 0.4 | 27.56 ± 0.4
[1], x1 = 0.6 | – | – | – | – | 31.5 ± 0.4 | 30.36 ± 0.4 | 29.3 ± 0.4 | 28.17 ± 0.4
[1], x1 = 0.65 | – | – | – | – | 32.2 ± 0.4 | 31.02 ± 0.4 | 29.94 ± 0.4 | 28.78 ± 0.4
[1], x1 = 0.7 | – | – | – | – | 32.9 ± 0.4 | 31.68 ± 0.4 | 30.58 ± 0.4 | 29.41 ± 0.4
[1], x1 = 0.75 | – | – | – | – | 33.62 ± 0.4 | 32.37 ± 0.4 | 31.24 ± 0.4 | 30.06 ± 0.4
[1], x1 = 0.8 | – | – | – | – | 34.4 ± 0.4 | 33.08 ± 0.4 | 31.93 ± 0.4 | 30.75 ± 0.4
[1], x1 = 0.85 | – | – | – | – | 35.2 ± 0.41 | 33.92 ± 0.4 | 32.8 ± 0.4 | 31.6 ± 0.4
[1], x1 = 0.9 | – | – | – | – | 36.1 ± 0.41 | 34.8 ± 0.41 | 33.7 ± 0.41 | 32.45 ± 0.4
[1], x1 = 0.95 | – | – | – | – | 36.9 ± 0.41 | 35.6 ± 0.41 | 34.5 ± 0.41 | 33.3 ± 0.41
[1], x1 = 1 | – | – | – | – | 37.7 ± 0.41 | 36.4 ± 0.41 | 35.3 ± 0.41 | 34.1 ± 0.41
[2], x1 = 0.05 | 1.38022 ± 0.00031 | 1.37602 ± 0.00031 | 1.37164 ± 0.00031 | 1.36738 ± 0.00031 | – | – | – | –
[2], x1 = 0.1 | 1.39462 ± 0.00031 | 1.39033 ± 0.00032 | 1.38588 ± 0.00032 | 1.38161 ± 0.00032 | – | – | – | –
[2], x1 = 0.15 | 1.40725 ± 0.00032 | 1.40288 ± 0.00032 | 1.39843 ± 0.00032 | 1.39409 ± 0.00032 | – | – | – | –
[2], x1 = 0.2 | 1.41836 ± 0.00032 | 1.41395 ± 0.00032 | 1.40945 ± 0.00032 | 1.40506 ± 0.00032 | – | – | – | –
[2], x1 = 0.25 | 1.42813 ± 0.00032 | 1.42372 ± 0.00032 | 1.41929 ± 0.00032 | 1.41487 ± 0.00032 | – | – | – | –
[2], x1 = 0.3 | 1.43696 ± 0.00032 | 1.43255 ± 0.00032 | 1.4281 ± 0.00032 | 1.42364 ± 0.00032 | – | – | – | –
[2], x1 = 0.35 | 1.44489 ± 0.00032 | 1.44048 ± 0.00032 | 1.43604 ± 0.00032 | 1.43155 ± 0.00032 | – | – | – | –
[2], x1 = 0.4 | 1.45211 ± 0.00032 | 1.44767 ± 0.00032 | 1.44323 ± 0.00032 | 1.4387 ± 0.00032 | – | – | – | –
[2], x1 = 0.45 | 1.45868 ± 0.00032 | 1.4542 ± 0.00032 | 1.44974 ± 0.00032 | 1.44517 ± 0.00032 | – | – | – | –
[2], x1 = 0.5 | 1.4647 ± 0.00032 | 1.46016 ± 0.00032 | 1.45571 ± 0.00032 | 1.4511 ± 0.00032 | – | – | – | –
[2], x1 = 0.55 | 1.4702 ± 0.00032 | 1.46565 ± 0.00032 | 1.46119 ± 0.00032 | 1.45653 ± 0.00032 | – | – | – | –
[2], x1 = 0.6 | 1.47521 ± 0.00032 | 1.47065 ± 0.00032 | 1.46619 ± 0.00032 | 1.46154 ± 0.00032 | – | – | – | –
[2], x1 = 0.65 | 1.47987 ± 0.00032 | 1.47531 ± 0.00032 | 1.47082 ± 0.00032 | 1.46613 ± 0.00032 | – | – | – | –
[2], x1 = 0.7 | 1.48418 ± 0.00032 | 1.47958 ± 0.00032 | 1.47508 ± 0.00032 | 1.47036 ± 0.00032 | – | – | – | –
[2], x1 = 0.75 | 1.48819 ± 0.00032 | 1.48358 ± 0.00032 | 1.47907 ± 0.00032 | 1.47434 ± 0.00032 | – | – | – | –
[2], x1 = 0.8 | 1.49191 ± 0.00032 | 1.48729 ± 0.00032 | 1.48279 ± 0.00032 | 1.47804 ± 0.00032 | – | – | – | –
[2], x1 = 0.85 | 1.49539 ± 0.00032 | 1.49076 ± 0.00032 | 1.48626 ± 0.00032 | 1.48148 ± 0.00032 | – | – | – | –
[2], x1 = 0.9 | 1.49871 ± 0.00032 | 1.49408 ± 0.00032 | 1.48959 ± 0.00032 | 1.48481 ± 0.00032 | – | – | – | –
[2], x1 = 0.95 | 1.5017 ± 0.00032 | 1.49709 ± 0.00032 | 1.49262 ± 0.00032 | 1.48783 ± 0.00032 | – | – | – | –
[2], x1 = 1 | 1.50439 ± 0.00032 | 1.49982 ± 0.00032 | 1.49539 ± 0.00032 | 1.49064 ± 0.00032 | – | – | – | –
